Measured values: the CheMixHub viscosity set

Experiment: xn = mol fraction of the nth substance listed

OCCOCCOCCO + CS(C)=O
viscosity [mPa·s], 100 kPa
Settings | 293.15 K | 298.15 K | 303.15 K | 308.15 K | 313.15 K | 318.15 K
x1 = 0.0266 | 2.4 | 2.27 | 2.01 | 1.87 | 1.72 | 1.53
x1 = 0.0547 | 2.72 | 2.64 | 2.36 | 2.14 | 1.97 | 1.74
x1 = 0.0842 | 3.09 | 3.02 | 2.69 | 2.42 | 2.22 | 1.95
x1 = 0.1155 | 3.58 | 3.49 | 3.08 | 2.77 | 2.52 | 2.21
x1 = 0.1485 | 4.15 | 4.03 | 3.55 | 3.17 | 2.87 | 2.5
x1 = 0.1822 | 4.76 | 4.64 | 4.05 | 3.61 | 3.24 | –
x1 = 0.2192 | 5.55 | 5.38 | 4.67 | 4.13 | 3.7 | –
x1 = 0.2575 | 6.44 | 6.21 | 5.36 | 4.7 | 4.19 | –
x1 = 0.3003 | 7.57 | 7.25 | 6.2 | 5.42 | 4.79 | –
x1 = 0.3422 | 8.76 | 8.35 | 7.09 | 6.15 | 5.42 | –
x1 = 0.3888 | 10.2 | 9.68 | 8.15 | 7.03 | 6.15 | –
x1 = 0.4385 | 11.9 | 11.2 | 9.36 | 8.03 | 6.98 | –
x1 = 0.4915 | 13.9 | 13 | 10.8 | 9.17 | 7.91 | –
x1 = 0.5521 | 16.4 | 15.2 | 12.5 | 10.6 | 9.07 | –
x1 = 0.6114 | 19.2 | 17.6 | 14.3 | 12 | 10.2 | –
x1 = 0.6754 | 22.3 | 20.3 | 16.4 | 13.7 | 11.5 | –
x1 = 0.7463 | 26 | 23.6 | 18.9 | 15.7 | 13.1 | –
x1 = 0.8233 | 30.6 | 27.5 | 21.8 | 17.9 | 14.9 | –
x1 = 0.9083 | 35.9 | 32 | 25.2 | 20.5 | 16.9 | –

CCCCCCCCCCCC + CCCCCC
Settings | viscosity [mPa·s]
293.15 K, 100 kPa, x2 = 0.0986 | 1.294
293.15 K, 100 kPa, x2 = 0.2 | 1.18
293.15 K, 100 kPa, x2 = 0.2024 | 1.137
293.15 K, 100 kPa, x2 = 0.2991 | 1.003
293.15 K, 100 kPa, x2 = 0.4 | 0.89
293.15 K, 100 kPa, x2 = 0.4003 | 0.864
293.15 K, 100 kPa, x2 = 0.5036 | 0.746
293.15 K, 100 kPa, x2 = 0.6 | 0.67
293.15 K, 100 kPa, x2 = 0.6025 | 0.635
293.15 K, 100 kPa, x2 = 0.7016 | 0.538
293.15 K, 100 kPa, x2 = 0.8 | 0.47
293.15 K, 100 kPa, x2 = 0.8003 | 0.453
293.15 K, 100 kPa, x2 = 0.899 | 0.382
298.1 K, 100 kPa, x2 = 0.5 | 0.719
298.15 K, 100 kPa, x2 = 0.0986 | 1.188
298.15 K, 100 kPa, x2 = 0.2024 | 1.049
298.15 K, 100 kPa, x2 = 0.2991 | 0.929
298.15 K, 100 kPa, x2 = 0.4003 | 0.803
298.15 K, 100 kPa, x2 = 0.5036 | 0.697
298.15 K, 100 kPa, x2 = 0.6025 | 0.596
298.15 K, 100 kPa, x2 = 0.7016 | 0.508
298.15 K, 100 kPa, x2 = 0.8003 | 0.429
298.15 K, 100 kPa, x2 = 0.899 | 0.363
298.15 K, 101 kPa, x1 = 0.1924 | 0.4343
298.15 K, 101 kPa, x1 = 0.4248 | 0.6351
298.15 K, 101 kPa, x1 = 0.605 | 0.8243
298.15 K, 101 kPa, x1 = 0.8064 | 1.067
298.15 K, 101.33 kPa, x1 = 0.0232 | 0.3154
298.15 K, 101.33 kPa, x1 = 0.0783 | 0.3506
298.15 K, 101.33 kPa, x1 = 0.1615 | 0.4067
298.15 K, 101.33 kPa, x1 = 0.1736 | 0.4183
298.15 K, 101.33 kPa, x1 = 0.3209 | 0.5387
298.15 K, 101.33 kPa, x1 = 0.411 | 0.6213
298.15 K, 101.33 kPa, x1 = 0.6005 | 0.8244
298.15 K, 101.33 kPa, x1 = 0.6932 | 0.9294
298.15 K, 101.33 kPa, x1 = 0.8557 | 1.137
298.15 K, 101.33 kPa, x1 = 0.9271 | 1.241
298.15 K, 101.33 kPa, x2 = 0.1128 | 1.196
298.15 K, 101.33 kPa, x2 = 0.2137 | 1.047
298.15 K, 101.33 kPa, x2 = 0.3024 | 0.9328
298.15 K, 101.33 kPa, x2 = 0.4043 | 0.8164
298.15 K, 101.33 kPa, x2 = 0.5067 | 0.7076
298.15 K, 101.33 kPa, x2 = 0.6062 | 0.6105
298.15 K, 101.33 kPa, x2 = 0.7222 | 0.5009
298.15 K, 101.33 kPa, x2 = 0.8039 | 0.4331
298.15 K, 101.33 kPa, x2 = 0.9037 | 0.3631
298.27 K, 101.3 kPa, x1 = 0.4998 | 0.7168
298.47 K, 101.3 kPa, x1 = 0.2499 | 0.4774
298.47 K, 101.3 kPa, x1 = 0.7481 | 1.002
303.15 K, 100 kPa, x2 = 0.0986 | 1.095
303.15 K, 100 kPa, x2 = 0.2024 | 0.971
303.15 K, 100 kPa, x2 = 0.2991 | 0.864
303.15 K, 100 kPa, x2 = 0.4003 | 0.75
303.15 K, 100 kPa, x2 = 0.5036 | 0.653
303.15 K, 100 kPa, x2 = 0.6025 | 0.561
303.15 K, 100 kPa, x2 = 0.7016 | 0.479
303.15 K, 100 kPa, x2 = 0.8003 | 0.407
303.15 K, 100 kPa, x2 = 0.899 | 0.352
303.57 K, 101.3 kPa, x1 = 0.7481 | 0.9319
303.58 K, 101.3 kPa, x1 = 0.2499 | 0.4512
308.12 K, 101.3 kPa, x1 = 0.7481 | 0.8716
308.15 K, 100 kPa, x2 = 0.0986 | 1.013
308.15 K, 100 kPa, x2 = 0.2024 | 0.902
308.15 K, 100 kPa, x2 = 0.2991 | 0.805
308.15 K, 100 kPa, x2 = 0.4003 | 0.702
308.15 K, 100 kPa, x2 = 0.5036 | 0.613
308.15 K, 100 kPa, x2 = 0.6025 | 0.529
308.15 K, 100 kPa, x2 = 0.7016 | 0.453
308.15 K, 100 kPa, x2 = 0.8003 | 0.388
308.15 K, 100 kPa, x2 = 0.899 | 0.334
308.15 K, 101.33 kPa, x1 = 0.0232 | 0.2875
308.15 K, 101.33 kPa, x1 = 0.0783 | 0.3133
308.15 K, 101.33 kPa, x1 = 0.1615 | 0.3656
308.15 K, 101.33 kPa, x1 = 0.1736 | 0.3742
308.15 K, 101.33 kPa, x1 = 0.3209 | 0.4799
308.15 K, 101.33 kPa, x1 = 0.411 | 0.5504
308.15 K, 101.33 kPa, x1 = 0.6005 | 0.7191
308.15 K, 101.33 kPa, x1 = 0.8557 | 0.9709
308.15 K, 101.33 kPa, x1 = 0.9271 | 1.054
308.18 K, 101.3 kPa, x1 = 0.4998 | 0.6313
308.23 K, 101.3 kPa, x1 = 0.2499 | 0.4292
311.42 K, 101.3 kPa, x1 = 0.2499 | 0.4144
313.15 K, 100 kPa, x2 = 0.0986 | 0.941
313.15 K, 100 kPa, x2 = 0.2 | 0.87
313.15 K, 100 kPa, x2 = 0.2024 | 0.841
313.15 K, 100 kPa, x2 = 0.2991 | 0.753
313.15 K, 100 kPa, x2 = 0.4 | 0.69
313.15 K, 100 kPa, x2 = 0.4003 | 0.658
313.15 K, 100 kPa, x2 = 0.5036 | 0.578
313.15 K, 100 kPa, x2 = 0.6 | 0.53
313.15 K, 100 kPa, x2 = 0.6025 | 0.5
313.15 K, 100 kPa, x2 = 0.7016 | 0.43
313.15 K, 100 kPa, x2 = 0.8 | 0.38
313.15 K, 100 kPa, x2 = 0.8003 | 0.37
313.15 K, 100 kPa, x2 = 0.899 | 0.317
318.15 K, 100 kPa, x2 = 0.0986 | 0.876
318.15 K, 100 kPa, x2 = 0.2024 | 0.786
318.15 K, 100 kPa, x2 = 0.2991 | 0.706
318.15 K, 100 kPa, x2 = 0.4003 | 0.619
318.15 K, 100 kPa, x2 = 0.5036 | 0.545
318.15 K, 100 kPa, x2 = 0.6025 | 0.474
318.15 K, 100 kPa, x2 = 0.7016 | 0.409
318.15 K, 100 kPa, x2 = 0.8003 | 0.359
318.15 K, 100 kPa, x2 = 0.899 | 0.302
322.68 K, 101.3 kPa, x1 = 0.4998 | 0.5301
323.08 K, 101.3 kPa, x1 = 0.2499 | 0.3672
323.15 K, 100 kPa, x2 = 0.0986 | 0.819
323.15 K, 100 kPa, x2 = 0.2024 | 0.736
323.15 K, 100 kPa, x2 = 0.2991 | 0.663
323.15 K, 100 kPa, x2 = 0.4003 | 0.584
323.15 K, 100 kPa, x2 = 0.5036 | 0.515
323.15 K, 100 kPa, x2 = 0.6025 | 0.45
323.15 K, 100 kPa, x2 = 0.7016 | 0.389
323.15 K, 100 kPa, x2 = 0.8003 | 0.342
323.15 K, 100 kPa, x2 = 0.899 | 0.287
